Reference: patent US20110014308A1, “NOVEL COMPOSITIONS AND USE THEREOF FOR THE TREATMENT, CO-TREATMENT OR PREVENTION OF INFLAMMATORY DISORDERS” (priority 2007, published 2011)

Key:
Type in all cases: cell-based
MMP-1 = MMP-1 gene expression (mRNA, RT-PCR) in IL1beta-treated normal human chondrocytes; conditions: catabolic gene, % of IL1beta-treated cells (set at 100%), HT 1.925 mg/L, CS 500 mg/L, or both
Method: (§1) Catabolic events are controlled by the expression of genes, e.g. those genes that encode matrix metalloproteinases (MMPs) that eventually break down collagen. Of the MMPs, MMP-1 and MMP-3 have a major role in the degradation of the ECM and thus in cartilage erosion. The effect of HT in combination with chondroitin was tested on the expression of human aggrecan or collagen I in normal human chondrocytes (derived from knee) (CC-2550; Cambrex, respectively). OH-tyrosol (HT) was from Cayman Chemicals or from DSM; chondroitin sulfate (from shark) was purchased from Sigma. A control experiment without the compounds was done concomitantly to compare the expression of these genes. Normal human chondrocytes were cultured for 4 hours or 4 days with HT (at 12.5 micromol/L), chondroitin (at 500 mg/L) as well as with both. The level of mRNA was determined by RT-PCR (Richard et al. Mol. Nutr. Food Res. 49, 431-442, 2005) and expressed relative to the level observed in cells cultured without the substances. The given values indicate the level of gene expression (in % of unstimulated cells [set at 100%] for anabolic and anti-catabolic genes; in % of IL1beta-treated cells [set at 100%], for catabolic genes). […]

IL-1beta = IL-1beta gene expression (mRNA, RT-PCR) in IL1beta-treated normal human chondrocytes; conditions: catabolic gene, % of IL1beta-treated cells (set at 100%), HT 1.925 mg/L, CS 500 mg/L, or both
Method: (§2) The effect of HT in combination with chondroitin was tested on the expression of human aggrecan or collagen I in normal human chondrocytes (derived from knee) (CC-2550; Cambrex, respectively). OH-tyrosol (HT) was from Cayman Chemicals or from DSM; chondroitin sulfate (from shark) was purchased from Sigma. A control experiment without the compounds was done concomitantly to compare the expression of these genes. Normal human chondrocytes were cultured for 4 hours or 4 days with HT (at 12.5 micromol/L), chondroitin (at 500 mg/L) as well as with both. The level of mRNA was determined by RT-PCR (Richard et al. Mol. Nutr. Food Res. 49, 431-442, 2005) and expressed relative to the level observed in cells cultured without the substances. The given values indicate the level of gene expression (in % of unstimulated cells [set at 100%] for anabolic and anti-catabolic genes; in % of IL1beta-treated cells [set at 100%], for catabolic genes). The combination of HT was used at 12.5 micromol/L (=1.925 mg/L), while the chondroitin sulfate (CS) was tested at 500 mg/L. The results shown in Table 1 indicate that a HT altered the expression of anabolic genes such as aggrecan or collagen. Similar effects were elicited by chondroitin. Yet, when combined the observed increase in gene expression exceeded the expected value reflecting a synergistic interaction.

human aggrecan = assay: Aggrecan gene expression (mRNA, RT-PCR) in normal human chondrocytes; conditions: anabolic gene, % of unstimulated cells (set at 100%), CS 500 mg/L, or both; for Aggrecan (unstim., 4 hrs) level of gene expression: HT 1.925 mg/L (12.5 micromol/L); for Aggrecan (unstim. 4 d) level of gene expression: HT 1.925 mg/L
Description: as §2, with “In articular cartilage, the balance between anabolic (build-up) and catabolic (break down) events needs to be maintained in order to prevent hypertrophy and excessive degradation of extracellular matrix (ECM), respectively. The ECM is built up of collagen and proteoglycans that are the products of collagen genes, for example human collagen I or aggrecan genes which are actived during anabolic events. A substance which increases expression of these genes or the respective proteins (i.e. collagen and aggrecan) favors cartilage regeneration and/or build-up. The effect” for “The effect”

human collagen I = assay: Collagen I gene expression (mRNA, RT-PCR) in normal human chondrocytes; conditions: anabolic gene, % of unstimulated cells (set at 100%), HT 1.925 mg/L, CS 500 mg/L, or both
Description: In articular cartilage, the balance between anabolic (build-up) and catabolic (break down) events needs to be maintained in order to prevent hypertrophy and excessive degradation of extracellular matrix (ECM), respectively. The ECM is built up of collagen and proteoglycans that are the products of collagen genes, for example human collagen I or aggrecan genes which are actived during anabolic events. A substance which increases expression of these genes or the respective proteins (i.e. collagen and aggrecan) favors cartilage regeneration and/or build-up. The effect of HT in combination with chondroitin was tested on the expression of human aggrecan or collagen I in normal human chondrocytes (derived from knee) (CC-2550; Cambrex, respectively). OH-tyrosol (HT) was from Cayman Chemicals or from DSM; chondroitin sulfate (from shark) was purchased from Sigma. A control experiment without the compounds was done concomitantly to compare the expression of these genes. Normal human chondrocytes were cultured for 4 hours or 4 days with HT (at 12.5 micromol/L), chondroitin (at 500 mg/L) as well as with both. The level of mRNA was determined by RT-PCR (Richard et al. Mol. Nutr. Food Res. 49, 431-442, 2005) and expressed relative to the level observed in cells cultured without the substances. […]

MMP-2 = MMP-2 gene expression (mRNA, RT-PCR) in IL1beta-treated normal human chondrocytes; conditions: catabolic gene, % of IL1beta-treated cells (set at 100%), HT 1.925 mg/L, CS 500 mg/L, or both
Method: as §1

MMP-13 = MMP-13 gene expression (mRNA, RT-PCR) in IL1beta-treated normal human chondrocytes; conditions: catabolic gene, % of IL1beta-treated cells (set at 100%), HT 1.925 mg/L, CS 500 mg/L, or both
Method: as §1

**Q.** With chondroitin sulfate [CS] as the compound, how does the “MMP-1 (stim., 4 d) level of gene expression” value (MMP-1) read?
**A.** Its value is 122%.

**Q.** What about the “IL-1beta (stim., 4 hrs) level of gene expression” value (IL-1beta) of the same compound?
**A.** The value was 91%.

**Q.** And the “Aggrecan (unstim., 4 hrs) level of gene expression” value (human aggrecan)?
**A.** The value was 113%.

**Q.** And the “Aggrecan (unstim. 4 d) level of gene expression” value (human aggrecan)?
**A.** The value was 97%.

**Q.** And the “Collagen 1 (unstim. 4 d) level of gene expression” value (human collagen I)?
**A.** Its value is 103%.

**Q.** And the “MMP-2 (stim., 4 hrs) level of gene expression” value (MMP-2)?
**A.** Its value is 116%.

**Q.** And the “MMP-13 (stim., 4 hrs) level of gene expression” value (MMP-13)?
**A.** The value was 90%.

**Q.** For OCCc1ccc(O)c(O)c1 [HT, 2-(3,4-dihydroxyphenyl)-ethanol], which “MMP-1 (stim., 4 d) level of gene expression” value (MMP-1) is on record?
**A.** The value was 109%.

**Q.** And the “IL-1beta (stim., 4 hrs) level of gene expression” value (IL-1beta)?
**A.** The value was 83%.

**Q.** And the “Aggrecan (unstim., 4 hrs) level of gene expression” value (human aggrecan)?
**A.** The value was 115%.

**Q.** What about the “Aggrecan (unstim. 4 d) level of gene expression” value (human aggrecan) of the same compound?
**A.** Its value is 118%.

**Q.** What about the “Collagen 1 (unstim. 4 d) level of gene expression” value (human collagen I) of the same compound?
**A.** The value was 113%.

**Q.** What about the “MMP-2 (stim., 4 hrs) level of gene expression” value (MMP-2) of the same compound?
**A.** The value was 102%.

**Q.** What about the “MMP-13 (stim., 4 hrs) level of gene expression” value (MMP-13) of the same compound?
**A.** Its value is 96%.
